Numbers after ± are expanded uncertainties.
Assay: refractive index (Na D-line) (dimensionless); xn = mol fraction of the nth substance listed
Conditions: 101 kPa, Liquid, Dipping refractometry (monochromatic)

C1CCOC1 [tetrahydrofuran] + CCCCO
refractive index
Conditions | x1 = 0.1001 | x1 = 0.2003 | x1 = 0.3 | x1 = 0.4003 | x1 = 0.5 | x1 = 0.6001 | x1 = 0.7003 | x1 = 0.8006 | x1 = 0.9002 | x1 = 1
288.15 K | 1.402 ± 0.0002 | 1.4028 ± 0.0002 | 1.4036 ± 0.0002 | 1.4043 ± 0.0002 | 1.4051 ± 0.0002 | 1.4059 ± 0.0002 | 1.4068 ± 0.0002 | 1.4077 ± 0.0002 | 1.4087 ± 0.0002 | 1.4096 ± 0.0002
293.15 K | 1.3999 ± 0.0002 | 1.4006 ± 0.0002 | 1.4013 ± 0.0002 | 1.4021 ± 0.0002 | 1.4028 ± 0.0002 | 1.4035 ± 0.0002 | 1.4044 ± 0.0002 | 1.4052 ± 0.0002 | 1.4061 ± 0.0002 | 1.407 ± 0.0002
298.15 K | 1.3978 ± 0.0002 | 1.3985 ± 0.0002 | 1.3991 ± 0.0002 | 1.3998 ± 0.0002 | 1.4004 ± 0.0002 | 1.4011 ± 0.0002 | 1.4019 ± 0.0002 | 1.4027 ± 0.0002 | 1.4035 ± 0.0002 | 1.4043 ± 0.0002
303.15 K | 1.3957 ± 0.0002 | 1.3963 ± 0.0002 | 1.3969 ± 0.0002 | 1.3974 ± 0.0002 | 1.398 ± 0.0002 | 1.3987 ± 0.0002 | 1.3994 ± 0.0002 | 1.4001 ± 0.0002 | 1.4009 ± 0.0002 | 1.4016 ± 0.0002
308.15 K | 1.3936 ± 0.0002 | 1.3941 ± 0.0002 | 1.3946 ± 0.0002 | 1.3951 ± 0.0002 | 1.3957 ± 0.0002 | 1.3962 ± 0.0002 | 1.3969 ± 0.0002 | 1.3975 ± 0.0002 | 1.3983 ± 0.0002 | 1.399 ± 0.0002
313.15 K | 1.3914 ± 0.0002 | 1.3919 ± 0.0002 | 1.3923 ± 0.0002 | 1.3928 ± 0.0002 | 1.3933 ± 0.0002 | 1.3938 ± 0.0002 | 1.3943 ± 0.0002 | 1.3949 ± 0.0002 | 1.3956 ± 0.0002 | 1.3963 ± 0.0002
318.15 K | 1.3893 ± 0.0002 | 1.3897 ± 0.0002 | 1.3901 ± 0.0002 | 1.3905 ± 0.0002 | 1.3909 ± 0.0002 | 1.3913 ± 0.0002 | 1.3918 ± 0.0002 | 1.3923 ± 0.0002 | 1.3929 ± 0.0002 | 1.3936 ± 0.0002
323.15 K | 1.3871 ± 0.0002 | 1.3874 ± 0.0002 | 1.3878 ± 0.0002 | 1.3881 ± 0.0002 | 1.3885 ± 0.0002 | 1.3888 ± 0.0002 | 1.3893 ± 0.0002 | 1.3897 ± 0.0002 | 1.3903 ± 0.0002 | 1.3909 ± 0.0002
